SMILES strings stand for the structures.

One compound from publication PMC6561935, “Hsp90 middle domain phosphorylation initiates a complex conformational program to recruit the ATPase-stimulating cochaperone Aha1” (Nature Communications, 2019) can be followed below.

Assay [1] has as its target T1, Hsp90 (human Hsp90α) (Homo sapiens, UniProt P07900, H210A).
T1 construct: gene HSP90AA1; purified full-length Hsp90α, C-terminally dimerized homodimer
The assay can be described thus: isothermal titration calorimetry. The format is binding.

Assay [2] addresses T2, Hsp90 (human Hsp90α) (Homo sapiens, UniProt P07900).
T2 construct: gene HSP90AA1; purified full-length Hsp90α, C-terminally dimerized homodimer
The assay can be described thus: isothermal titration calorimetry. Type of assay: binding. A general note: In ITC the heat of successive injections is recorded.

Broadly, the Kd is a measure of binding affinity in units of concentration. A high value points to weaker binding. In the case of `Nc1ncnc2c1ncn2[C@@H]1O[C@H](COP(=O)(O)OP(=O)(O)NP(=O)(O)O)[C@@H](O)[C@H]1O` [AMPPNP], the Kd turned out to be 170 ± 9.8 µM on Hsp90 (human Hsp90α) [1] and 220 ± 37 µM at Hsp90 (human Hsp90α) [2].
